According to ChEMBL document CHEMBL3352431, “Furazan and furoxan sulfonamides are strong α-carbonic anhydrase inhibitors and potential antiglaucoma agents” (Bioorg Med Chem, 2014):

How the values were obtained:
Carbonic anhydrase 9 = Carbonic anhydrase 9 (Homo sapiens, UniProt Q16790); assay: Inhibition of human CA9 by CO2 hydration activity based stopped flow assay
Oryctolagus cuniculus [1] = assay: Antiglaucoma activity in New Zealand rabbit model of carbomer-induced ocular hypertension assessed as reduction in intraocular pressure dosed with 50 uL of 2% compound solution and measured after 3 to 4 hrs; format: functional, Eye
Oryctolagus cuniculus [2] = assay: Antiglaucoma activity in New Zealand rabbit model of hypertonic saline-induced ocular hypertension assessed as reduction in intraocular pressure dosed with 50 uL of 2% compound solution and measured after 2 hrs; format: functional, Eye
Oryctolagus cuniculus [3] = assay: Antiglaucoma activity in New Zealand rabbit model of hypertonic saline-induced ocular hypertension assessed as reduction in intraocular pressure dosed with 50 uL of 2% compound solution and measured after 1 to 2 hrs; format: functional, Eye

| Ki (Carbonic anhydrase 9) [nM] | Structure (SMILES) | further results |
| --- | --- | --- |
| 6.4 | NS(=O)(=O)c1ccc(Oc2no[n+]([O-])c2S(=O)(=O)c2ccccc2)cc1 |  |
| 34.5 | NS(=O)(=O)c1ccc(-c2c(S(=O)(=O)c3ccccc3)no[n+]2[O-])cc1 |  |
| 62.9 | NS(=O)(=O)c1ccc(-c2nonc2-c2ccccc2)cc1 |  |
| 6.3 | NS(=O)(=O)c1nonc1-c1ccccc1 |  |
| 7.1 | NS(=O)(=O)c1no[n+]([O-])c1-c1ccccc1 |  |
| 5040 | NS(=O)(=O)c1ccc(-c2c(Sc3ccccc3)no[n+]2[O-])cc1 |  |
| 62.8 | NS(=O)(=O)c1ccc(-c2no[n+]([O-])c2-c2ccccc2)cc1 |  |
| 6.6 | CCOc1nonc1S(N)(=O)=O |  |
| 110 | NS(=O)(=O)c1ccc(OCc2nonc2-c2ccccc2)cc1 |  |
| 5.8 | COc1nonc1S(N)(=O)=O |  |
| 6.5 | Cc1no[n+]([O-])c1S(N)(=O)=O | Activity (Oryctolagus cuniculus [1]): 10 mmHg |
| 57.6 | NS(=O)(=O)c1ccc(-c2nonc2Sc2ccccc2)cc1 |  |
| 3.9 | CC(C)COc1nonc1S(N)(=O)=O |  |
| 71.1 | NS(=O)(=O)c1ccc(-c2nonc2Oc2ccccc2)cc1 |  |
| 7.3 | Cc1c(S(N)(=O)=O)no[n+]1[O-] | Activity (Oryctolagus cuniculus [1]): 10 mmHg |
| 63.9 | NS(=O)(=O)c1ccc(-c2c(Oc3ccccc3)no[n+]2[O-])cc1 |  |
| 10.8 | N#Cc1nonc1COc1ccc(S(N)(=O)=O)cc1 | Activity (Oryctolagus cuniculus [2]): 8 mmHg |
| 5.8 | NS(=O)(=O)c1nonc1OCc1ccccc1 |  |
| 32.3 | NC(=O)c1c(COc2ccc(S(N)(=O)=O)cc2)no[n+]1[O-] | Activity (Oryctolagus cuniculus [3]): 5 mmHg |
| 4.8 | CCCCOc1nonc1S(N)(=O)=O |  |
| 7.9 | Cc1nonc1S(N)(=O)=O | Activity (Oryctolagus cuniculus [1]): 10 mmHg |
| 49.8 | NC(=O)c1nonc1COc1ccc(S(N)(=O)=O)cc1 | Activity (Oryctolagus cuniculus [3]): 5 mmHg |
| 6.3 | NS(=O)(=O)c1nonc1Oc1ccccc1 |  |
| 47.9 | NS(=O)(=O)c1ccc(OCc2no[n+]([O-])c2-c2ccccc2)cc1 |  |
| 58 | NS(=O)(=O)c1ccc(-c2c(-c3ccccc3)no[n+]2[O-])cc1 |  |
| 7.4 | NS(=O)(=O)c1c(-c2ccccc2)no[n+]1[O-] |  |
| 63.6 | NS(=O)(=O)c1ccc(-c2nonc2S(=O)(=O)c2ccccc2)cc1 |  |
| 11.3 | N#Cc1c(COc2ccc(S(N)(=O)=O)cc2)no[n+]1[O-] | Activity (Oryctolagus cuniculus [2]): 8 mmHg |
| 7.3 | NS(=O)(=O)c1ccc(Oc2nonc2S(=O)(=O)c2ccccc2)cc1 |  |

| Structure (SMILES) | Ki (Carbonic anhydrase 9) [nM] | further results |
| --- | --- | --- |
| NS(=O)(=O)c1ccc(-c2c([N+](=O)[O-])no[n+]2[O-])cc1 | 54.5 |  |
| NS(=O)(=O)c1ccc(-c2nonc2[N+](=O)[O-])cc1 | 54.7 |  |
